Experimental data reported in US3954780A, “Propionic acid derivatives” (Innothera, priority 1970, dated 1976).
Values after ≈ are worked out from the molar mass of the structure shown. Counter-ions that a name gives are not always drawn.

Experiments:
isolated rat duodenum = test: Spasmolytic activity of papaverinic type, barium chloride contracture; settings: Tyrode 38°; for EC50: read-out: Spasmolytic activity Papaverinic type DE 50 (converted)
Experimental: a. To show activity of the papaverinic type, the contracturant used is barium chloride acting on the isolated rat duodenum.
The average activity of the substances studied has been effected by determining graphically their DE 30 and DE 50 these being expressed in μg for 20 ml of bath.

[1] = tested on: isolated ileum of the guinea-pig; test: Spasmolytic activity of atropinic type, acetylcholine chloride contracture; settings: Tyrode 33°; for EC50: Cavia porcellus, read-out: Spasmolytic activity Atropinic type DE 50 (converted)
Excerpt: b. To show activity of atropinic type the contracturant used is acetylcholine chloride acting on the isolated ileum of the guinea-pig. […]

Structure (SMILES)	Spasmolytic activity Papaverinic type DE 30 (isolated rat duodenum)	EC50 (isolated rat duodenum) [µg/mL]	EC50 [1] [µg/mL]	Spasmolytic activity Atropinic type DE 30 [1]
C=CCC(Cc1csc2ccccc12)C(=O)OCCN(CC)CC (centres unmarked) [Compound 1]	3.7 μg for 20 ml of bath	0.125 (≈ 0.362 µM)		
C=CCC(Cc1csc2ccccc12)C(=O)OCCN1CCCC1 (centres unmarked) [Compound 2]	12.0 μg for 20 ml of bath	1.15 (≈ 3.35 µM)		
C=CCC(Cc1csc2ccccc12)C(=O)OCCN1CCCCC1 (centres unmarked) [Compound 3]	18.0 μg for 20 ml of bath	2 (≈ 5.59 µM)		
C=CCC(Cc1csc2ccccc12)C(=O)OCCCN1CCCC1 (centres unmarked) [Compound 8]	42.0 μg for 20 ml of bath	4 (≈ 11.2 µM)	4.5 (≈ 12.6 µM)	55 μg/20 ml of bath
C=CCC(Cc1csc2ccccc12)C(=O)OCCCN1CCCCC1 (centres unmarked) [Compound 9]	13.0 μg for 20 ml of bath	1 (≈ 2.69 µM)		
C=CCC(Cc1csc2ccccc12)C(=O)OCCCN1CCCCCC1 (centres unmarked) [Compound 10]	7.2 μg for 20 ml of bath	0.65 (≈ 1.69 µM)		
CN(C)CCOC(=O)C(Cc1csc2ccccc12)c1ccccc1 (centres unmarked) [Compound 12]	24.0 μg for 20 ml of bath	2.5 (≈ 7.07 µM)	5 (≈ 14.1 µM)	50 μg/20 ml of bath
CCN(CC)CCOC(=O)C(Cc1csc2ccccc12)c1ccccc1 (stereo not drawn) [Compound 13, N,N-diethylamino ethyl ester of α-phenyl-β-[(benzo(b)thienyl-3]propionic acid and its oxalate]	13.0 μg for 20 ml of bath	2.25	2.1	30 μg/20 ml of bath
O=C(OCCN1CCCC1)C(Cc1csc2ccccc12)c1ccccc1 (centres unmarked) [Compound 14]	18.0 μg for 20 ml of bath	1.75 (≈ 4.61 µM)	7 (≈ 18.4 µM)	90 μg/20 ml of bath
O=C(OCCN1CCCCC1)C(Cc1csc2ccccc12)c1ccccc1 (centres unmarked) [Compound 15]	45.0 μg for 20 ml of bath	3.5 (≈ 8.89 µM)	2.25 (≈ 5.72 µM)	26 μg/20 ml of bath
O=C(OCCN1CCOCC1)C(Cc1csc2ccccc12)c1ccccc1 (centres unmarked) [Compound 16]	38.0 μg for 20 ml of bath	5.5 (≈ 13.9 µM)	22.5 (≈ 56.9 µM)	225 μg/20 ml of bath
CN(C)CCCOC(=O)C(Cc1csc2ccccc12)c1ccccc1 (centres unmarked) [Compound 18]	8.0 μg for 20 ml of bath	1 (≈ 2.72 µM)	1.75 (≈ 4.76 µM)	22 μg/20 ml of bath
CCN(CC)CCCOC(=O)C(Cc1csc2ccccc12)c1ccccc1 (centres unmarked) [Compound 19]	11.5 μg for 20 ml of bath	1.25 (≈ 3.16 µM)		
O=C(OCCCN1CCCC1)C(Cc1csc2ccccc12)c1ccccc1 (centres unmarked) [Compound 20]	8.0 μg for 20 ml of bath	0.95 (≈ 2.41 µM)	2.75 (≈ 6.99 µM)	25 μg/20 ml of bath
O=C(OCCCN1CCCCC1)C(Cc1csc2ccccc12)c1ccccc1 (centres unmarked) [Compound 21]	8.0 μg for 20 ml of bath	0.95 (≈ 2.33 µM)	4 (≈ 9.81 µM)	40 μg/20 ml of bath
O=C(OCCCN1CCCCCC1)C(Cc1csc2ccccc12)c1ccccc1 (centres unmarked) [Compound 22]	7.0 μg for 20 ml of bath	0.8 (≈ 1.9 µM)		
CC(CN1CCCCC1)OC(=O)C(Cc1csc2ccccc12)c1ccccc1 (centres unmarked) [Compound 23]	3.1 μg for 20 ml of bath	0.35 (≈ 0.859 µM)	7 (≈ 17.2 µM)	50 μg/20 ml of bath
CN(C)CCOC(=O)C(Cc1ccccc1)Cc1csc2ccccc12 (centres unmarked) [Compound 24]	10.0 μg for 20 ml of bath	1.25 (≈ 3.4 µM)	10 (≈ 27.2 µM)	90 μg/20 ml of bath
CCN(CC)CCOC(=O)C(Cc1ccccc1)Cc1csc2ccccc12 (centres unmarked) [Compound 25]	9.0 μg for 20 ml of bath	0.9 (≈ 2.28 µM)	6 (≈ 15.2 µM)	60 μg/20 ml of bath
O=C(OCCN1CCCC1)C(Cc1ccccc1)Cc1csc2ccccc12 (centres unmarked) [Compound 26]	5.5 μg for 20 ml of bath	0.6 (≈ 1.52 µM)	7 (≈ 17.8 µM)	50 μg/20 ml of bath

Structure (SMILES)	Spasmolytic activity Papaverinic type DE 30 (isolated rat duodenum)	EC50 (isolated rat duodenum) [µg/mL]	EC50 [1] [µg/mL]	Spasmolytic activity Atropinic type DE 30 [1]
O=C(OCCN1CCCCC1)C(Cc1ccccc1)Cc1csc2ccccc12 (centres unmarked) [Compound 27]	6.0 μg for 20 ml of bath	0.6 (≈ 1.47 µM)		
O=C(OCCN1CCCCCC1)C(Cc1ccccc1)Cc1csc2ccccc12 (centres unmarked) [Compound 28]	6.5 μg for 20 ml of bath	0.7 (≈ 1.66 µM)	250 (≈ 593 µM)	750 μg/20 ml of bath
CN(C)CCCOC(=O)C(Cc1ccccc1)Cc1csc2ccccc12 (centres unmarked) [Compound 29]	4.0 μg for 20 ml of bath	0.425 (≈ 1.11 µM)	5 (≈ 13.1 µM)	45 μg/20 ml of bath
CCN(CC)CCCOC(=O)C(Cc1ccccc1)Cc1csc2ccccc12 (centres unmarked) [Compound 30]	6.0 μg for 20 ml of bath	0.65 (≈ 1.59 µM)		
O=C(OCCCN1CCCC1)C(Cc1ccccc1)Cc1csc2ccccc12 (centres unmarked) [Compound 31]	16.0 μg for 20 ml of bath	1.4 (≈ 3.43 µM)	3.25 (≈ 7.97 µM)	40 μg/20 ml of bath
O=C(OCCCN1CCCCC1)C(Cc1ccccc1)Cc1csc2ccccc12 (centres unmarked) [Compound 32]	4.5 μg for 20 ml of bath	0.475 (≈ 1.13 µM)		
O=C(OCCCN1CCCCCC1)C(Cc1ccccc1)Cc1csc2ccccc12 (centres unmarked) [Compound 33]	4.0 μg for 20 ml of bath	0.425 (≈ 0.976 µM)		
CC(CN1CCCC1)OC(=O)C(Cc1ccccc1)Cc1csc2ccccc12 (centres unmarked) [Compound 34]	8.0 μg for 20 ml of bath	0.8 (≈ 1.96 µM)		
CCN(CC)CCOC(=O)C(Cc1cccs1)Cc1csc2ccccc12 (centres unmarked) [Compound 36]	8.5 μg for 20 ml of bath	1 (≈ 2.49 µM)	1.4 (≈ 3.49 µM)	14 μg/20 ml of bath
O=C(OCCN1CCCCC1)C(Cc1cccs1)Cc1csc2ccccc12 (centres unmarked) [Compound 38]	6.0 μg for 20 ml of bath	0.8 (≈ 1.93 µM)	10 (≈ 24.2 µM)	95 μg/20 ml of bath
O=C(OCCN1CCOCC1)C(Cc1cccs1)Cc1csc2ccccc12 (centres unmarked) [Compound 39]	43.0 μg for 20 ml of bath	4 (≈ 9.63 µM)		
CN(C)CCCOC(=O)C(Cc1cccs1)Cc1csc2ccccc12 (centres unmarked) [Compound 41]	4.3 μg for 20 ml of bath	0.525 (≈ 1.35 µM)	2.3 (≈ 5.93 µM)	24 μg/20 ml of bath
O=C(OCCCN1CCCCC1)C(Cc1cccs1)Cc1csc2ccccc12 (centres unmarked) [Compound 44]	5.5 μg for 20 ml of bath	0.4 (≈ 0.935 µM)	3.5 (≈ 8.18 µM)	30 μg/20 ml of bath
O=C(OCCCN1CCCCCC1)C(Cc1cccs1)Cc1csc2ccccc12 (centres unmarked) [Compound 45]	14.0 μg for 20 ml of bath	1.35 (≈ 3.06 µM)		
CC(CN1CCCC1)OC(=O)C(Cc1cccs1)Cc1csc2ccccc12 (centres unmarked) [Compound 46]	2.5 μg for 20 ml of bath	0.5 (≈ 1.21 µM)	0.9 (≈ 2.18 µM)	6.5 μg/20 ml of bath
CN(C)CCOC(=O)C(Cc1csc2ccccc12)CC1CCCO1 (centres unmarked) [Compound 47]	9.0 μg for 20 ml of bath	0.75 (≈ 2.07 µM)		
CN(C)CCCOC(=O)C(Cc1csc2ccccc12)CC1CCCO1 (centres unmarked) [Compound 52]	8.0 μg for 20 ml of bath	0.7 (≈ 1.86 µM)		
O=C(OCCCN1CCCCCC1)C(Cc1csc2ccccc12)CC1CCCO1 (centres unmarked) [Compound 56]	10.0 μg for 20 ml of bath	0.8 (≈ 1.86 µM)		
CN1C2CCC1CC(OC(=O)C(CO)c1ccccc1)C2 (centres unmarked) [atropine sulphate, reference compound]			≤ 0.005	
